Experimental data: BindingDB's records for doi:10.1016/j.ejmech.2019.01.044 (Institute of Agricultural and Food Biotechnology, 2019)

Target: T1, Proteasome subunit beta type-5 (Rattus norvegicus, UniProt P28075)
T1 sequence (P28075 whole entry): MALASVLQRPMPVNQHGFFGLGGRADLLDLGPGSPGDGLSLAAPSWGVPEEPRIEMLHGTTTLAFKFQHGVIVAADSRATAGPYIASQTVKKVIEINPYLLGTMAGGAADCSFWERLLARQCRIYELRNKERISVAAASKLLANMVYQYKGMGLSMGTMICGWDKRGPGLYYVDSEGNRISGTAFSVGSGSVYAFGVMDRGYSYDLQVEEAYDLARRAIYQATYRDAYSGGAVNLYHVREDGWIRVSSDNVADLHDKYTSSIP
Experiment: Inhibition of chymotrypsin-like activity of rat liver 26 proteasome assessed as decrease in fluorescence using succinyl-Leu-Leu-Val-Tyr-4-methylcoumaryl-7-amide as substrate preincubated for 30 mins followed by addition of substrate and measured after 1 hr by fluorescence based method

| IC50 [nM] | SMILES |
| --- | --- |
| 71.3 | C=CC(/C=C\c1ccc(O)cc1)c1ccc(O)cc1 (centres undefined) |
| > 960 | COc1cc(O)c(C(=O)c2ccc(O)cc2)c(O)c1 |
| 234 | Oc1ccc(CC2COc3cc(O)ccc3C2)cc1 (centres undefined) |
| 178 | COc1cc(O)ccc1CCCc1ccc(O)cc1 [BROUSSONIN B] |
